# Residues, ends and D or L forms follow the SMILES beside them. *: point of attachment. Cbz = O=C(OCc1ccccc1)*
# How the values were obtained:
# LMTK3 kinase domain = molecular target: T1, LMTK3 kinase domain (Homo sapiens, UniProt Q96Q04); assay: LMTK3 inhibitor screening assay (CisBio KinEASE STK S1 kit, ratiometric fluorescent read-out); type: biochemical; conditions: for Average % Inhibition / Average pIC50: 10 nM LMTK3, 1 μM S1 peptide, ATP 10 μM; for Average pIC50: 120 mins at 37° C., N=5
# T1 construct: GST (N); made in house; host or cells: insect cells
# T1 sequence (Q96Q04 133-415): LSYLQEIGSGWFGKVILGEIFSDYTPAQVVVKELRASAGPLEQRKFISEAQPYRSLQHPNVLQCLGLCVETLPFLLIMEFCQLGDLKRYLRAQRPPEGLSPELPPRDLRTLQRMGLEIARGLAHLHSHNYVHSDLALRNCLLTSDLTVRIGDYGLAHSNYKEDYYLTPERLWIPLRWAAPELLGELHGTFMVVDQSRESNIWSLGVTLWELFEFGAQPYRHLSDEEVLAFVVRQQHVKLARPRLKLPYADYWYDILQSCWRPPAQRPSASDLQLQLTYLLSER
# Description: This exemplary assay has been developed to find inhibitors of LMTK3. The LMTK3 kinase domain (amino acids 133-415 of the full length kinase sequence, with an N-terminal GST tag) was expressed in insect cells and isolated via the GST N-terminal epitope.
# Kinase reactions are set up in the presence of 1% DMSO with ATP added at around KM (=10 μM). Kinase activity is monitored using the CisBio KinEASE STK S1 kit using a ratiometric fluorescent read-out at 665 and 620 nm. The assay uses 10 nM LMTK3, 1 μM S1 peptide, 10 mM MgCl2 in the manufacturer buffer with extension of reaction time to 120 mins at 37° C.
# Screening was performed in 384 low volume black microtitre plates with a final volume of 20 μl. The reaction was stopped with the addition of EDTA and detection reagents and fluorescence read on Pherastar. Data was normalised to the high control as specified by no inhibition and the low controls, equating to no activity (absence of ATP). Inhibitor activity was determined using concentration response curves, and using a four parameter fit to identify pIC50 values. Assay robustness was calculated using Z prime.
# [1] = test system: ERα protein in MCF7 cells; assay: Western blotting of ERα protein levels; type: cell-based, human; conditions: for ERα protein levels under LMTK3 silencing with co-treatment: MCF7, LMTK3 siRNA plus compound
# Description: (A) MCF7 cells (1×10^6) were plated in 10 cm^2 plates in phenol red-free DMEM containing 10% DSS. The following day, cells were transfected with 20 nM CT siRNA or LMTK3 siRNA for 72 h and then treated or not (ET-OH) with E2 (10 nM) for 24 h. Cells were harvested, lysed and equal protein amounts were subjected to Western Blotting analysis using the indicated antibodies. β-actin was used as a control for sample loading. (B) Quantitative analysis of ERα and LMTK3 protein levels is given as fold of control. […] (C) MCF7 cells (5×10^4) were plated in 24-well plates and transfected with 20 nM CT siRNA or LMTK3 siRNA for 48 h. Gene expression of ERα was measured by qRT-PCR.
# (§1) Whole cell lysates were prepared using NP40 lysis buffer (50 mM Tris-HCl, pH 8.0, 150 mM NaCl, 10% (v/v) glycerol, 1% NP40, 5 mM dithiothreitol (DTT), 1 mM EDTA, 1 mM EGTA, 50 μM leupeptin and 30 μg/ml aprotinin). These extracts were then clarified by centrifugation at 15000 rpm for 15 min at 4° C. for western blotting. The bicinchoninic acid (BCA) protein assay (Pierce) was used to determine the protein concentration of the lysates. […] The membranes were then blocked in TBS containing 0.1% (v/v) Tween20 and 5% (w/v) non-fat milk for 1 h and subsequently probed overnight with different antibodies following extensive washing with TBS/Tween and incubation with HRP-conjugated goat anti-rabbit IgG or goat anti-mouse IgG (1:1000 dilution) for 45 mins. Enhanced chemiluminescence (ECL) detection then allowed detection of the immunocomplexes. The intensity of the bands were quantified using Image J software (NIH, Bethesda, Md.).
# as §1, with “45 min.” for “45 mins.”, “the immuno-complexes.” for “the immunocomplexes.”, “bands was” for “bands were”
# LMTK3 gene expression = LMTK3 gene expression after E2 or tamoxifen; type: cell-based
# Description: Total RNA was isolated using the RNeasy kit (Qiagen). Reverse transcription was performed using high capacity cDNA reverse transcription kit (Applied Biosystems). RT-qPCR analysis was performed on a 7900HT Thermocycler (Applied Biosystems) using TaqMan mastermix and primers for TFF1, PGR, GREB1, FOXO3, FOXM1, LMTK1, LMTK2, LMTK3, MCL1 and GAPDH cDNAs, purchased from Applied Biosystems.
# [2] = test system: Tamoxifen resistant cell lines (LCC9, MLET5, BT-474); assay: WST-1 cell proliferation assay in tamoxifen resistant cell lines; type: cell-based; conditions: 20 nM siRNA, Tamoxifen 100 nM
# Description: Tamoxifen resistant cell lines (LCC9, MLET5, BT-474) were transfected with 20 nM of control siRNA or LMTK3 siRNA in the presence or absence of Tamoxifen (100 nM). Cells were subjected to the WST-1 cell proliferation assay, on the day of transfection (day 0) and then consecutive 48 h intervals. Absorbance was measured at 460 nm. Results represent the mean of three experiments per cell line ±SE.
# FIG. 28 Effects of LMTK3 silencing in tamoxifen-resistant cell lines. (a) BT-474, (b) MLET5 and, (c) LCC9 cells were transfected with LMTK3 siRNA in the presence or absence of tamoxifen (100 nM). Comparisons are shown amongst: i) siControl-transfected and tamoxifen treated cells (*), ii) siControl- and siLMTK3-transfected cells ($) and iii) tamoxifen treated and siLMTK3-transfected cells (p<0.05—Student's t test). Western blotting of AIB1 and p-ERα S118 protein expression levels are shown.
# The colorimetric Rapid Cell Proliferation kit (Calbiochem, UK) was used. The assay is based on the incubation of cells with the tatrazolium salt WST-1, which is cleaved by mitochondrial dehydrogenases, functional only in viable cells. […] The following day, cells were incubated with the WST-1 for 30 min at 37° C., according to manufacturer's instructions, and the absorbance read with the microplate reader at 460 nm was considered to be Day 0. […] Readings were repeated consecutively in 48 h intervals. […]
structure (smiles),measurement,setting,value
CCCCCCOC(=O)[C@]1(O)C[C@@H]2O[C@@]1(C)n1c3ccccc3c3c4c(c5c6ccccc6n2c5c31)C(=O)NC4 [KT5720],Average % Inhibition,LMTK3 kinase domain,98.65%
same,Average pIC50,LMTK3 kinase domain,9.93
"C[C@]12CC[C@@H]3c4ccc(O)cc4CC[C@H]3[C@@H]1CC[C@@H]2O [E2, Estradiol]",decrease of ERα protein levels,"[1]; MCF7, E2 10 nM 24 h or 20 nM siRNA 72 h",~40%
CCCCCCCCCCCCCC(=O)O[C@@H]1[C@@H](C)[C@@]2(O)[C@@H](C=C(CO)C[C@]3(O)C(=O)C(C)=C[C@@H]23)[C@@H]2C(C)(C)[C@]12OC(C)=O [PMA],ERα protein levels under LMTK3 silencing with co-treatment,[1],further degrades ERα
COc1ccc2c(c1)c(C1=C(c3c[nH]c4ccccc34)C(=O)NC1=O)cn2CCCN(C)C [Go 6983],ERα protein levels under LMTK3 silencing with co-treatment,[1],partly rescues the LMTK3 siRNA-induced down-regulation of ERα
CN(C)CCCn1cc(C2=C(c3c[nH]c4ccccc34)C(=O)NC2=O)c2ccccc21 [GF109203X],Average % Inhibition,LMTK3 kinase domain,107.89%
same,Average pIC50,LMTK3 kinase domain,9.88
COC(=O)[C@@]1(O)C[C@H]2O[C@]1(C)n1c3ccccc3c3c4c(c5c6ccccc6n2c5c31)C(=O)NC4 [K-252a],IC50,LMTK3 kinase domain,79.4 nM
same,Average % Inhibition,LMTK3 kinase domain,98.91%
CN[C@@H]1C[C@H]2O[C@@](C)([C@@H]1OC)n1c3ccccc3c3c4c(c5c6ccccc6n2c5c31)C(=O)NC4 [Staurosporine],IC50,LMTK3 kinase domain,0.0024 nM
same,Average % Inhibition,LMTK3 kinase domain,108.86%
CC(C)C[C@@H](C=O)NC(=O)[C@H](CC(C)C)NC(=O)[C@H](CC(C)C)NC(=O)OCc1ccccc1 [MG132] (Cbz-Leu-Leu-Leu-aldehyde),ERα protein levels under LMTK3 silencing with co-treatment,[1],partly rescued ERα degradation
CC/C(=C(\c1ccccc1)c1ccc(OCCN(C)C)cc1)c1ccccc1 [Tamoxifen],LMTK3 expression,LMTK3 gene expression,up-regulated
same,increase of ERα protein levels,"[1]; MCF7, Tam 100 nM 24 h",~50%
same,effect on growth of tamoxifen-resistant cell lines,[2],slightly affected basal cell growth

# Reference: patent publication US20130190237A1, “METHODS FOR CATEGORISING CANCER SUCH AS BREAST CANCER” (IMPERIAL INNOVATIONS LIMITED, priority 2010, published 2013)
